{"source": "paper PMC11542786", "about": "“Isoscopoletin inhibits hepatocellular carcinoma cell proliferation via regulating glycolysis-related proteins” (PLOS ONE, 2024)", "assay_in_all_cases": "microscale thermophoresis", "assay_type_in_all_cases": "binding", "key": {"Hsp90α": {"biological_target": "T1, Hsp90α (Homo sapiens, UniProt P07900)", "T1 construct": "gene HSP90AA1; labelled with DyLight 488 for MST"}, "GPD2": {"biological_target": "T2, GPD2 (Homo sapiens, UniProt P43304)", "T2 construct": "labelled with DyLight 488 for MST; docking model 1x0v is not the assayed protein", "T2 sequence (P43304 43-727)": "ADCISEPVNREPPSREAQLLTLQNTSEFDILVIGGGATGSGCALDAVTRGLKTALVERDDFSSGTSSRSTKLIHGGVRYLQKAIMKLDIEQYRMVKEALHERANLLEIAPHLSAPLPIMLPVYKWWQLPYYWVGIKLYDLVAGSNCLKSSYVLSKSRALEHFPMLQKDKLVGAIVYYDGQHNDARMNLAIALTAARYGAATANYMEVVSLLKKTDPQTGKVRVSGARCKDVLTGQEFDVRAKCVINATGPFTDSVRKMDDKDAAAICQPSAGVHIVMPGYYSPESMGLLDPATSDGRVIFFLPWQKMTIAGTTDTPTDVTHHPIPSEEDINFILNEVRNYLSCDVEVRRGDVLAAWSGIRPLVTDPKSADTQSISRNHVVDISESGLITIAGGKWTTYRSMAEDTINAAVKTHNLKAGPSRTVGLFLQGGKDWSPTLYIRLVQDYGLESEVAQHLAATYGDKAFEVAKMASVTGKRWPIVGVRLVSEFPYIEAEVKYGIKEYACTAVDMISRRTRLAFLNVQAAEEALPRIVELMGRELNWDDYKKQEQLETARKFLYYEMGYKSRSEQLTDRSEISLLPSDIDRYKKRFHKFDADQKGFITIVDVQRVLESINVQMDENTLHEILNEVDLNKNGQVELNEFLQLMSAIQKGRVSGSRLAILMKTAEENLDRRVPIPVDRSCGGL"}, "PGK2": {"biological_target": "T3, PGK2 (Homo sapiens, UniProt P07205)", "T3 construct": "labelled with DyLight 488 for MST; docking model 2paa is not the assayed protein", "T3 sequence (P07205 2-417)": "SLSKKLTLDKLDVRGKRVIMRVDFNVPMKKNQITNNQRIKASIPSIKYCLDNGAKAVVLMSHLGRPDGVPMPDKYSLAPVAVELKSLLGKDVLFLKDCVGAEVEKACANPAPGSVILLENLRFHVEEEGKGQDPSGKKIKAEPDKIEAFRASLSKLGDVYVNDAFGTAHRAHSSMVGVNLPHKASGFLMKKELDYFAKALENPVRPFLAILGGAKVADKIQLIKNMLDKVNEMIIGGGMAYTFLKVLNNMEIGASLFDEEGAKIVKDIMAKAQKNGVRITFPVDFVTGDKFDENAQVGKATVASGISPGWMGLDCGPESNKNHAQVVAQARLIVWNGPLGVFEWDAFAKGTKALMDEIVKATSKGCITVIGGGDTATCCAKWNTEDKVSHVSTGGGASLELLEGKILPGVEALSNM"}, "GPI": {"biological_target": "T4, GPI (Homo sapiens, UniProt P06744)", "T4 construct": "labelled with DyLight 488 for MST"}}, "data": [{"compound": "COc1cc2oc(=O)ccc2cc1O", "note": "[Isoscopoletin]", "values": [{"measurement": "Kd", "setting": "Hsp90α", "value": 52.2, "unit": "mM"}, {"measurement": "Kd", "setting": "GPD2", "value": 13.4, "unit": "mM"}, {"measurement": "Kd", "setting": "PGK2", "value": 3.22, "unit": "mM"}, {"measurement": "Kd", "setting": "GPI", "value": 1.35, "unit": "mM"}]}]}
